Here are results for 38 compounds from US20240174690A1, “ANNULATED 2-AMINO-3-CYANO THIOPHENES AND DERIVATIVES FOR THE TREATMENT OF CANCER” (BOEHRINGER INGELHEIM INTERNATIONAL GMBH, priority 2021, published 2024).

Structures are written as SMILES.

In the first test the test system is MKN1 cells. Description: MKN1 CTG proliferation assay (120 h) (gastric cancer, wt amplified). Type of test: cell-based. Conditions: Homo sapiens, MKN-1, assay 1, CTG 120 h, read-out: MKN1 (assay 1) IC50. How it is done:
MKN1 CTG Proliferation Assay (120 h) (Gastric Cancer, Wt Amplified)
MKN1 cells (JCRB0252) are dispensed into white 384-well plates, flat and white bottom (Corning Costar, PNr.: 3570) at a density of 400 cells per well in 50 μL RPMI 1640 (PAN-Biotech, PNr.: P04-18047)+10% FCS (HyClone, PNr.: SH30084.03) (assay 1) or into white 384-well plates, flat and white bottom (Perkin Elmer, 6007680) at a density of 500 cells per well in 40 μl RPMI (Gibco, PNr.: 21875034)+10% FCS (HyClone, PNr.: SH30084.03) (assay 2) or into black 384-well plates, flat and clear bottom (Greiner, PNr. 781091) at a density of 200 cells per well in 60 μl RPMI-1640 (Gibco #A10491)+10% FCS (HyClone, PNr.: SH30084.03)+PenStrep (Gibco, PNr.15140-122) (assay 3). […] Compounds (10 mM stock in DMSO) are added at logarithmic dose series using the HP Digital Dispenser D300 (Tecan) (assay 1+2) or the ECHO acoustic liquid handler system (Beckman Coulter) (assay 3), including DMSO controls and normalizing for added DMSO. Plates are incubated for 120 h, and cell viability is measured using CellTiter-Glo luminescent cell viability reagent (Promega product code G7570). Viability (stated as percent of control) is defined as relative luminescence units RLU of each well divided by the RLU of cells in DMSO controls. IC50 values are determined from viability measurements by non-linear regression using a four-parameter model.
Take `CC(C)NC(=O)Cc1ccn(-c2cc(O[C@@H](C)[C@@H]3CCCN3C)nc(-c3noc4c3CCC[C@@]43CCCc4sc(N)c(C#N)c43)n2)n1` [II-182]: the IC50 (usually the concentration that inhibits the measured activity by half) amounted to 24 nM.
Same read-out and setting: the value for `C[C@H](Oc1cc(-n2ccc(C3(O)COC3)n2)nc(-c2noc3c2CCC[C@@]32CCCc3sc(N)c(C#N)c32)n1)[C@@H]1CCCN1C` [II-189] was 19 nM.

The same test, now with this note: Homo sapiens, MKN-1, assay 2, CTG 120 h, read-out: MKN1 (assay 2) IC50.
On to `C[C@H](Oc1cc(-n2cc3c(n2)CN(C)C3)nc(-c2noc3c2CCC[C@@]32CCCc3sc(N)c(C#N)c32)n1)[C@@H]1CCCN1C` [II-174], for which the IC50 came to 341 nM.
On the same count and under the same terms, the value for `CO[C@H]1CCN(C)[C@@H]1[C@H](C)Oc1cc(N2CCNC3(CC3)C2)nc(-c2noc3c2CCC[C@@]32CCCc3sc(N)c(C#N)c32)n1` [II-184] was 227 nM; that for `CCN1CCN(c2cc(O[C@@H](C)[C@@H]3C[C@@H](F)CN3C)nc(-c3noc4c3CCC[C@@]43CCCc4sc(N)c(C#N)c43)n2)CC12CC2` [II-185] was greater than 949 nM; that for `CO[C@H]1CCN(C)[C@@H]1[C@H](C)Oc1cc(N2CCN(C)C3(CC3)C2)nc(-c2noc3c2CCC[C@@]32CCCc3sc(N)c(C#N)c32)n1` [II-186] was 313 nM.
Consider `CO[C@@H]1C[C@@H]([C@H](C)Oc2cc(N3CCNC4(CC4)C3)nc(-c3noc4c3CCC[C@@]43CCCc4sc(N)c(C#N)c43)n2)N(C)C1` [II-187], for which the IC50 was 383 nM.

Staying with this test, now noted: Homo sapiens, MKN-1, assay 3, CTG 120 h, read-out: MKN1 (assay 3) IC50.
With `CC(C)NC(=O)Cc1ccn(-c2cc(O[C@@H](C)[C@@H]3CCCN3C)nc(-c3noc4c3CCC[C@@]43CCCc4sc(N)c(C#N)c43)n2)n1` [II-182], the IC50 came to 12 nM.
Still for that read-out and setting: with `CO[C@H]1CCN(C)[C@@H]1[C@H](C)Oc1cc(-n2ccc(CC(=O)NC(C)C)n2)nc(-c2noc3c2CCC[C@@]32CCCc3sc(N)c(C#N)c32)n1` [II-183] the figure was 41 nM.
On the same count and under the same terms, the value for `CO[C@H]1CCN(C)[C@@H]1[C@H](C)Oc1cc(N2CCNC3(CC3)C2)nc(-c2noc3c2CCC[C@@]32CCCc3sc(N)c(C#N)c32)n1` [II-184] was 68 nM.
The same measure, in the same setting: the value for `CCN1CCN(c2cc(O[C@@H](C)[C@@H]3C[C@@H](F)CN3C)nc(-c3noc4c3CCC[C@@]43CCCc4sc(N)c(C#N)c43)n2)CC12CC2` [II-185] was 1900 nM; that for `CO[C@H]1CCN(C)[C@@H]1[C@H](C)Oc1cc(N2CCN(C)C3(CC3)C2)nc(-c2noc3c2CCC[C@@]32CCCc3sc(N)c(C#N)c32)n1` [II-186] was 260 nM.
As to `CO[C@@H]1C[C@@H]([C@H](C)Oc2cc(N3CCNC4(CC4)C3)nc(-c3noc4c3CCC[C@@]43CCCc4sc(N)c(C#N)c43)n2)N(C)C1` [II-187], the IC50 is 357 nM.
Still for that read-out and setting: the value for `C[C@H](Oc1cc(-n2ccc(C3(O)COC3)n2)nc(-c2noc3c2CCC[C@@]32CCCc3sc(N)c(C#N)c32)n1)[C@@H]1CCCN1C` [II-189] was 18 nM.

In the next test the test system is NCI-H2122 cells. Put plainly: NCI-H2122 CTG proliferation assay (120 h) (NSCLC, G12C). The test is classed as cell-based. The note with it: Homo sapiens. In outline: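 NCI-H2122 cells (KRAS G12C NSCLC), 200 per well in RPMI with 10% FCS, were dosed with compound on day 1 and incubated 120 h at 37 °C. Viability was read by CellTiter-Glo luminescence as percent of DMSO control, and IC50 was fitted with a four-parameter model.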
Consider `C[C@H](Oc1cc(N2CCNC[C@]23CCOC3)nc(-c2onc3c2CCC[C@@]32CCCc3sc(N)c(C#N)c32)n1)[C@@H]1CCCN1C` [I-12], for which the IC50 was 3280 nM.
The same measure, in the same setting: the value for `C[C@H](Oc1cc(-n2cncc3ccnc2-3)nc(-c2onc3c2CCC[C@@]32CCCc3sc(N)c(C#N)c32)n1)[C@@H]1CCCN1C` [I-14] was 2870 nM.
Still for that read-out and setting: the value for `CO[C@@H]1C[C@@H]([C@H](C)Oc2cc(-c3cnn(C)n3)nc(-c3onc4c3CCC[C@@]43CCCc4sc(N)c(C#N)c43)n2)N(C)C1` [I-17] was 4230 nM; that for `C[C@H](Oc1cc(-n2cncn2)nc(-c2onc3c2CCC[C@@]32CCCc3sc(N)c(C#N)c32)n1)[C@@H]1CCCN1C` [I-18] was 1760 nM; that for `C[C@H](Oc1cc(N2Cc3cnn(C)c3C2)nc(-c2onc3c2CCC[C@@]32CCCc3sc(N)c(C#N)c32)n1)[C@@H]1CCCN1C` [I-19] was 2710 nM.
The same measure, in the same setting: the value for `C[C@H](Oc1cc(-n2cc(-c3cncs3)nn2)nc(-c2noc3c2CCC[C@@]32CCCc3sc(N)c(C#N)c32)n1)[C@@H]1CCCN1C` [II-125] was 768 nM.
As for `C[C@H](Oc1cc(-n2cnc(C(=O)N(C)C)c2)nc(-c2noc3c2CCC[C@@]32CCCc3sc(N)c(C#N)c32)n1)[C@@H]1CCCN1C` [II-126], the IC50 was 2690 nM.
On the same count and under the same terms, the value for `C[C@H](Oc1cc(-c2ccn([C@H]3CCOC3)n2)nc(-c2noc3c2CCC[C@@]32CCCc3sc(N)c(C#N)c32)n1)[C@@H]1CCCN1C` [II-127] was 189 nM; that for `C[C@H](Oc1cc(-c2ccn(Cc3ncco3)n2)nc(-c2noc3c2CCC[C@@]32CCCc3sc(N)c(C#N)c32)n1)[C@@H]1CCCN1C` [II-128] was 361 nM.
Same read-out and setting: the value for `C[C@H](Oc1cc(-c2ccn(C[C@H]3CCOC3)n2)nc(-c2noc3c2CCC[C@@]32CCCc3sc(N)c(C#N)c32)n1)[C@@H]1CCCN1C` [II-129] was 198 nM; that for `C[C@H](Oc1cc(-n2nccc2-c2ccncc2)nc(-c2noc3c2CCC[C@@]32CCCc3sc(N)c(C#N)c32)n1)[C@@H]1CCCN1C` [II-131] was 672 nM.
Still for that read-out and setting: the value for `C[C@H](Oc1cc(-n2cc(C(=O)N(C)C)nn2)nc(-c2noc3c2CCC[C@@]32CCCc3sc(N)c(C#N)c32)n1)[C@@H]1CCCN1C` [II-132] was 188 nM.
Compound `C[C@H](O)Cn1ncc(-c2cc(O[C@@H](C)[C@@H]3CCCN3C)nc(-c3noc4c3CCC[C@@]43CCCc4sc(N)c(C#N)c43)n2)n1` [II-134] displayed a 50% inhibitory concentration (IC50) of 4120 nM.
The same measure, in the same setting: the value for `C[C@H]1CNCCCN1c1cc(-c2ccn(C)n2)nc(-c2noc3c2CCC[C@@]32CCCc3sc(N)c(C#N)c32)n1` [II-140] was 8240 nM.
The same measure, in the same setting: with `C[C@H](Oc1cc(-n2cc3c(n2)CCN(C)C3)nc(-c2noc3c2CCC[C@@]32CCCc3sc(N)c(C#N)c32)n1)[C@@H]1CCCN1C` [II-141] the figure was 2830 nM.
The same measure, in the same setting: with `C[C@H]1CNCCCN1c1cc(-n2ccnc2)nc(-c2noc3c2CCC[C@@]32CCCc3sc(N)c(C#N)c32)n1` [II-142] the figure was 10500 nM; with `C[C@H](Oc1cc(N2CCOC2=O)nc(-c2noc3c2CCC[C@@]32CCCc3sc(N)c(C#N)c32)n1)[C@@H]1CCCN1C` [II-143], 584 nM.
Turning to `C[C@H](Oc1cc(-c2ccn(C)n2)nc(-c2noc3c2CCC[C@@]32CCCc3sc(N)c(C#N)c32)n1)[C@@H]1C[C@H](F)CN1C` [II-144], inhibition was half-maximal at 3690 nM (IC50).
On the same count and under the same terms, with `C[C@H](Oc1cc(N2CCN(C)C3(COC3)C2)nc(-c2noc3c2CCC[C@@]32CCCc3sc(N)c(C#N)c32)n1)[C@@H]1C[C@@H](F)CN1C` [II-148] the figure was 2220 nM; with `C[C@H](Oc1cc(N2CCN(C)C3(CCOC3)C2)nc(-c2noc3c2CCC[C@@]32CCCc3sc(N)c(C#N)c32)n1)[C@@H]1C[C@@H](F)CN1C` (some centres unmarked) [II-151], 3580 nM; with `C[C@H](Oc1cc(N2CC3COCC(C2)N3)nc(-c2noc3c2CCC[C@@]32CCCc3sc(N)c(C#N)c32)n1)[C@@H]1CCCN1C` [II-160], 3190 nM.
`C[C@@H]1CN(c2cc(O[C@@H](C)[C@@H]3CCCN3C)nc(-c3noc4c3CCC[C@@]43CCCc4sc(N)c(C#N)c43)n2)CCN1` [II-161] yielded an IC50 of 4850 nM.
On the same count and under the same terms, the value for `C[C@H](Oc1cc([C@H]2CCNC2)nc(-c2noc3c2CCC[C@@]32CCCc3sc(N)c(C#N)c32)n1)[C@@H]1CCCN1C` [II-163] was 4500 nM; that for `CC(C)[C@@H]1CN(c2cc(O[C@@H](C)[C@@H]3CCCN3C)nc(-c3noc4c3CCC[C@@]43CCCc4sc(N)c(C#N)c43)n2)CCN1` [II-166] was 1250 nM; that for `C[C@H](Oc1cc(N2C[C@@H]3[C@@H](N)[C@@H]3C2)nc(-c2noc3c2CCC[C@@]32CCCc3sc(N)c(C#N)c32)n1)[C@@H]1CCCN1C` [II-167] was 9790 nM.
Still for that read-out and setting: the value for `CC(C)N1CCCN(c2cc(-n3ccnc3)nc(-c3noc4c3CCC[C@@]43CCCc4sc(N)c(C#N)c43)n2)[C@@H](C)C1` [II-169] was 2280 nM; that for `CC(C)N1CCCN(c2cc(-c3ccn(C)n3)nc(-c3noc4c3CCC[C@@]43CCCc4sc(N)c(C#N)c43)n2)[C@@H](C)C1` [II-170] was 942 nM; that for `C[C@H](Oc1cc(N2CCN(C)C3(CC3)C2)nc(-c2noc3c2CCC[C@@]32CCCc3sc(N)c(C#N)c32)n1)[C@@H]1CCCN1C` [II-171] was 3060 nM.
Still for that read-out and setting: the value for `C[C@H](Oc1cc(N2C[C@H](C)N(C)[C@@H](C)C2)nc(-c2noc3c2CCC[C@@]32CCCc3sc(N)c(C#N)c32)n1)[C@@H]1CCCN1C` [II-173] was 1460 nM; that for `CC(=O)N1CCN(c2cc(O[C@@H](C)[C@@H]3CCCN3C)nc(-c3noc4c3CCC[C@@]43CCCc4sc(N)c(C#N)c43)n2)CC12CC2` [II-178] was 948 nM.
